Results published in EP0236307B1, “ANTIHYPERTENSIVE AGENTS, PHARMACEUTICAL COMPOSITIONS CONTAINING THEM AND PROCESSES FOR THE PREPARATION OF THE AGENTS AND COMPOSITIONS” (SCHERING CORPORATION, priority 1985, dated 1987).

Test system: angiotensin converting enzyme
Assay: In-vivo ACE inhibitory activity: inhibition of the pressor response to i.v. angiotensin I in anesthetised rats
Conditions: for ID50 (i.v.): intravenous dose required to inhibit the pressor response to i.v. angiotensin I by 50% in anesthetised rats; for ID50 (oral): oral dose required to inhibit the pressor response to i.v. angiotensin I by 50% in anesthetised rats
Source text: As mentioned before the compounds of this invention show valuable antihypertensive activity. It can be concluded from animal tests that these compounds have high angiotensin converting enzyme inhibitory activity (ACE inhibitory activity). The in-vivo ACE inhibitory activity of Compound A: 1- [N-[1(S)-carboxy-3- [4-(4-chloro-3-sulfamoyl benzamido) phenyl] propyl](S)-alanyl]cis,syn-octahydroindole-2-(S)-carboxylic acid Compound B: 1-[N-[1(S)-carboxy-3-[4-(4-chloro-3-N-methyl-sulfamoyl benzamido)phenyl]propyl]-(S)-alanyl]cis, syn-octahydroindole-2(S)-carboxylic acid is as follows: […]

Structure (SMILES)	ID50 (i.v.)	ID50 (oral)
C[C@H](N[C@@H](CCc1ccc(NC(=O)c2ccc(Cl)c(S(N)(=O)=O)c2)cc1)C(=O)O)C(=O)N1[C@H](C(=O)O)C[C@@H]2CCCC[C@@H]21 [Compound A, 1-[N-[1(S)-carboxy-3-[4-(4-chloro-3-sulfamoylbenzamido)phenyl]propyl](S)-alanyl]cis,syn-octahydroindole-2-(S)-carboxylic acid]	36 µg/kg	3 mg/kg
CNS(=O)(=O)c1cc(C(=O)Nc2ccc(CC[C@H](N[C@@H](C)C(=O)N3[C@H](C(=O)O)C[C@@H]4CCCC[C@@H]43)C(=O)O)cc2)ccc1Cl [Compound B, 1-[N-[1(S)-carboxy-3-[4-(4-chloro-3-N-methyl-sulfamoylbenzamido)phenyl]propyl]-(S)-alanyl]cis, syn-octahydroindole-2(S)-carboxylic acid]	33 µg/kg	3 mg/kg
